A value given as a limit tells only on which side of the number the result lay.

Sequence of HPK1 kinase (Q92918 whole entry): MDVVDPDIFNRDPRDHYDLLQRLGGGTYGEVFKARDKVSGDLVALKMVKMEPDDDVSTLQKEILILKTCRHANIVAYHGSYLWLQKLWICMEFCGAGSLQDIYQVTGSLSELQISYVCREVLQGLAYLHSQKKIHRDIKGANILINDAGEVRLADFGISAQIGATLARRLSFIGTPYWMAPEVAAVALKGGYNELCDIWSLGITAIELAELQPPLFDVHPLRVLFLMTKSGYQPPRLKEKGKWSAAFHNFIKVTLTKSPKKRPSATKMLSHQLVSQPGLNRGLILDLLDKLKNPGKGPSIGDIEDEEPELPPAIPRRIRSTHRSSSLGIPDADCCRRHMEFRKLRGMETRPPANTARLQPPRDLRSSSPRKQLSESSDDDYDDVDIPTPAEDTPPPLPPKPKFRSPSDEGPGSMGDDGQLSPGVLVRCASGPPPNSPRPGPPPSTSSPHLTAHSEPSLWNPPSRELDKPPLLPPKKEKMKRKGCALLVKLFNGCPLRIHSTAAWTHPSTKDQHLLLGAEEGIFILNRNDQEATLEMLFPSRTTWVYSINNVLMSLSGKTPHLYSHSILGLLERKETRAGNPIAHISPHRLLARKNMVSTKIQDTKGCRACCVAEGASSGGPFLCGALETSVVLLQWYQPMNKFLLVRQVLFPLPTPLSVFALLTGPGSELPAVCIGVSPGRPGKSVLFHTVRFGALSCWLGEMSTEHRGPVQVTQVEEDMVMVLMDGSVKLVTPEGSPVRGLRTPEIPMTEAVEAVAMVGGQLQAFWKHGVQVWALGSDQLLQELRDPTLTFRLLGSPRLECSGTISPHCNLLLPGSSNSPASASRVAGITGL

In the assay the target is HPK1 kinase (Homo sapiens (Human), UniProt Q92918). Kind of assay: HPK1 kinase activity inhibition (ADP-Glo Kinase Assay). The assay is classed as biochemical. Particulars: HPK1, MBP substrate, ATP, 25° C. 60 min. On the procedure:
Test Example 1: Detection of Compound's Ability to Inhibit HPK1 Kinase Activity (Method 1)
The specific operation is as follows: configure the enzymatic reaction system buffer (10 mM MOPS, pH 7.2, 5 mM β-glycerol-phosphate, 10 mM MgCl2, 0.8 mM EDTA, 2 mM EGTA, 0.1 mM DTT); the test compound (1 mM the compound stock solution in DMSO) was diluted with buffer to the highest concentration of 60 uM (containing 6% DMSO), and the compound with a concentration of 60 μM was initially diluted 5 times with a buffer containing 6% DMSO for a total of 8 points of gradient concentration; then dilute HPK1 kinase to 30 nM in buffer. Add 2 μl of HPK1 kinase diluent to each well of a Greiner 384-well microplate (Cat. No. 784075), and add 2 μl of buffer to the control well; add 1 μl of the diluted compound to the reaction well after brief centrifugation, and add 1 μl buffer solution containing 6% DMSO to the control well; after short centrifugation, place in a 25° C. constant temperature incubator (Shanghai Yiheng Scientific Instrument Co., Ltd., Cat. No.: LRH-150) and incubate for 20 minutes. Add 3 μl of reaction substrate (10 μM MBP and 20 μM ATP dissolved in distilled water) to each well, briefly centrifuge and incubate in a constant temperature incubator at 25° C. for 60 min, and use ADP-Glo Kinase Assay Kit to detect the enzymatic reaction activity, ADP-Glo Kinase Assay Kit detection is carried out according to the operating instructions of the kit. Data are described using the half maximal inhibitory concentration IC50 of the compound.
On the technique in general: ADP-Glo turns the ADP formed in a reaction into a luminescent signal.
As to `COc1nc2c(cc1Nc1ncc3ccnc(-c4cccnc4OC)c3n1)CN(C)CC2` [Example 34, N-(2-methoxy-6-methyl-5,6,7,8-tetrahydro-1,6-naphthyridin-3-yl)-8-(2-methoxypyridin-3-yl) pyrido[3,4-d]pyrimidin-2-amine], the half-maximal inhibitory concentration (IC50) (commonly the concentration needed to halve the response being measured) is 0.61 nM.

Regarding `COc1nc2c(cc1Nc1ncc3ccnc(N4CCOCC4)c3n1)CN(C)CC2` [Example 35, N-(2-methoxy-6-methyl-5,6,7,8-tetrahydro-1,6-naphthyridin-3-yl)-8-morpholinopyrido[3,4-d]pyrimidin-2-amine], the IC50 stood at 1.16 nM.

Compound `COc1nc2c(cc1Nc1ncc3cccc(-c4ccccn4)c3n1)CN(C)CC2` [Example 37, N-(2-methoxy-6-methyl-5,6,7,8-tetrahydro-1,6-naphthyridin-3-yl)-8-(pyridin-2-yl)quinazoline-2-amine] had a concentration for half-maximal inhibition (IC50) of 4.27 nM.

Take `COc1nc2c(cc1Nc1ncc3cccc(NCc4ccccc4)c3n1)CN(C)CC2` [Example 38, N8-Benzyl-N2-(2-methoxy-6-methyl-5,6,7,8-tetrahydro-1,6-naphthyridin-3-yl)quinazoline-2,8-diamine]: half-maximal inhibition (IC50) required 0.41 nM.

In the case of `COc1nc2c(cc1Nc1ncc3cccc(NCC(C)C)c3n1)CN(C)CC2` [Example 39, N8-isobutyl-N2-(2-methoxy-6-methyl-5,6,7,8-tetrahydro-1,6-naphthyridin-3-yl)quinazoline-2,8-diamine], the IC50 was < 0.1 nM.

Consider `COc1nc2c(cc1Nc1ncc3cccc(-c4cccc(Cl)n4)c3n1)CN(C)CC2` [Example 40, 8-(6-chloropyridin-2-yl)-N-(2-methoxy-6-methyl-5,6,7,8-tetrahydro-1,6-naphthyridin-3-yl)quinazolin-2-amine], for which the half-maximal inhibitory concentration (IC50) is < 0.1 nM.

Take `COc1nc2c(cc1Nc1ncc3ccnc(NCC(C)(C)C)c3n1)CN(C)CC2` [Example 41, N2-(2-methoxy-6-methyl-5,6,7,8-tetrahydro-1,6-naphthyridin-3-yl)-N8-neopentylpyrido[3,4-d]pyrimidine-2,8-diamine]: the concentration for half-maximal inhibition (IC50) was < 0.1 nM.

With `COc1nc2c(cc1Nc1ncc3ccnc(N[C@@H](C)C(C)(C)C)c3n1)CN(C)CC2` [Example 42, (S)—N8-(3,3-dimethylbut-2-yl)-N2-(2-methoxy-6-methyl-5,6,7,8-tetrahydro-1,6-naphthyridin-3-yl)pyrido[3,4-d]pyrimidine-2,8-diamine], the half-maximal inhibitory concentration (IC50) was < 0.1 nM.

Compound `COc1nc2c(cc1Nc1ncc3ccnc(-c4cc(C)nn4C)c3n1)CN(C)CC2` [Example 43, 8-(1,3-Dimethyl-1H-pyrazol-5-yl)-N-(2-methoxy-6-methyl-5,6,7,8-tetrahydro-1,6-naphthyridin-3-yl)pyrido[3,4-d]pyrimidin-2-amine] showed a 50% inhibitory concentration (IC50) of 4.67 nM.

Consider `CCOc1nc2c(cc1Nc1ncc3cccc(-c4ccccc4OC)c3n1)CN(C)CC2` [Example 44, N-(2-ethoxy-6-methyl-5,6,7,8-tetrahydro-1,6-naphthyridin-3-yl)-8-(2-methoxyphenyl)quinazolin-2-amine], for which the IC50 is < 0.1 nM.

With `COc1ccccc1-c1cccc2cnc(Nc3cnc4c(c3)CN(C)CC4)nc12` [Example 45, 8-(2-methoxyphenyl)-N-(6-methyl-5,6,7,8-tetrahydro-1,6-naphthyridin-3-yl)quinazolin-2-amine], the IC50 was < 0.1 nM.

Turning to `COc1ccccc1-c1cccc2cnc(Nc3cc4c(nc3C)CCN(C)C4)nc12` [Example 46, N-(2,6-dimethyl-5,6,7,8-tetrahydro-1,6-naphthyridin-3-yl)-8-(2-methoxyphenyl)quinazoline-2-amine], the half-maximal inhibitory concentration (IC50) is 0.15 nM.

As for `CCOc1nc2c(cc1Nc1ncc3cccc(-c4cccnc4OC)c3n1)CN(C)CC2` [Example 47, N-(2-ethoxy-6-methyl-5,6,7,8-tetrahydro-1,6-naphthyridin-3-yl)-8-(2-methoxypyridin-3-yl) quinazolin-2-amine], inhibition was half-maximal at 2.77 nM (IC50).

`COc1ncccc1-c1cccc2cnc(Nc3cc4c(nc3C)CCN(C)C4)nc12` [Example 48, N-(2,6-dimethyl-5,6,7,8-tetrahydro-1,6-naphthyridin-3-yl)-8-(2-methoxypyridin-3-yl)quinazolin-2-amine]: it took 1.93 nM to reach half-maximal inhibition (IC50).

On to `CN1CCc2[nH]c(=O)c(Nc3ncc4ccnc(N5CCOCC5)c4n3)cc2C1` [Example 49, 6-methyl-3-((8-morpholinopyrido[3,4-d]pyrimidin-2-yl)amino)-5,6,7,8-tetrahydro-1,6-naphthyridine-2(1H)-one], for which the IC50 was 26.9 nM.

Take `CCOc1nc2c(cc1Nc1ncc3ccnc(NCC(C)(C)C)c3n1)CN(C)CC2` [Example 52, N2-(2-ethoxy-6-methyl-5,6,7,8-tetrahydro-1,6-naphthyridin-3-yl)-N8-neopentylpyrido[3,4-d]pyrimidine-2,8-diamine]: the IC50 was < 0.1 nM.

Consider `COc1nc2c(cc1Nc1ncc3cccc(-c4cnn(C)c4C)c3n1)CN(C)CC2` [Example 53, 8-(1,5-dimethyl-1H-pyrazol-4-yl)-N-(2-methoxy-6-methyl-5,6,7,8-tetrahydro-1,6-Naphthyridin-3-yl)quinazolin-2-amine], for which the 50% inhibitory concentration (IC50) was < 0.1 nM.

`CCOc1nc2c(cc1Nc1ncc3cccc(-c4ccc(=O)n(C)c4)c3n1)CN(C)CC2` [Example 54, 5-(2-((2-ethoxy-6-methyl-5,6,7,8-tetrahydro-1,6-naphthyridin-3-yl)amino)quinazolin-8-yl)-1-methylpyridin-2(1H)-one] registered an IC50 of 21.7 nM. In other words, the double-digit nanomolar range.

Take `CCOc1nc2c(cc1Nc1ncc3cccc(-c4cnn(C)c4C)c3n1)CN(C)CC2` [Example 55, 8-(1,5-dimethyl-1H-pyrazol-4-yl)-N-(2-ethoxy-6-methyl-5,6,7,8-tetrahydro-1,6-naphthyridin-3-yl)quinazolin-2-amine]: the IC50 amounted to 0.66 nM.

With `CCOc1nc2c(cc1Nc1ncc3ccnc(N[C@@H](CO)C(C)(C)C)c3n1)CN(C)CC2` [Example 57, (R)-2-((2-((2-ethoxy-6-methyl-5,6,7,8-tetrahydro-1,6-naphthyridin-3-yl)amino)pyrido[3,4-d]pyrimidin-8-yl)amino)-3,3-dimethylbutan-1-ol], the half-inhibitory concentration (IC50) is 0.25 nM.

`CCOc1nc2c(cc1Nc1ncc3ccnc(N[C@H](C)C(C)(C)C)c3n1)CN(C)CC2` [Example 58, (R)—N8-(3,3-dimethylbut-2-yl)-N2-(2-ethoxy-6-methyl-5,6,7,8-tetrahydro-1,6-Naphthyridin-3-yl)pyrido[3,4-d]pyrimidine-2,8-diamine]: the IC50 is < 0.1 nM.

With `COc1nc2c(cc1Nc1ncc3cccc(Cc4ccccc4)c3n1)CN(C)CC2` [Example 59, 8-benzyl-N-(2-methoxy-6-methyl-5,6,7,8-tetrahydro-1,6-naphthyridin-3-yl)quinazolin-2-amine], the 50% inhibitory concentration (IC50) was < 0.1 nM.

For the compound `Cc1c(-c2cccc3cnc(Nc4cc5c([nH]c4=O)CCN(C)C5)nc23)cnn1C` [Example 61, 3-((8-(1,5-dimethyl-1H-pyrazol-4-yl)quinazolin-2-yl)amino)-6-methyl-5,6,7,8-tetrahydro-1,6-naphthyridin-2(1H)-one], the concentration for half-maximal inhibition (IC50) was < 0.1 nM.

Compound `COc1ccccc1-c1nccc2cnc(Nc3cc4c([nH]c3=O)CCN(C)C4)nc12` [Example 62, 3-((8-(2-methoxyphenyl)pyrido[3,4-d]pyrimidin-2-yl)amino)-6-methyl-5,6,7,8-tetrahydro-1,6-naphthyridin-2(1H)-one] displayed an IC50 of 23.1 nM. This lies in the double-digit nanomolar range.

Take `CN1CCc2[nH]c(=O)c(Nc3ncc4ccnc(N5CCCCC5)c4n3)cc2C1` [Example 63, 6-methyl-3-((8-(piperidin-1-yl)pyrido[3,4-d]pyrimidin-2-yl)amino)-5,6,7,8-tetrahydro-1,6-naphthyridin-2(1H)-one]: half-maximal inhibition (IC50) required 31.3 nM.

In the case of `CN1CCc2[nH]c(=O)c(Nc3ncc4ccnc(NCC(C)(C)C)c4n3)cc2C1` [Example 64, 6-methyl-3-((8-(neopentylamino)pyrido[3,4-d]pyrimidin-2-yl)amino)-5,6,7,8-tetrahydro-1,6-naphthyridin-2(1H)-one], the half-inhibitory concentration (IC50) was < 0.1 nM.

Compound `CCOc1nc2c(cc1Nc1ncc3ccnc(N4CC(C)(C)C4)c3n1)CN(C)CC2` [Example 65, 8-(3,3-dimethylazetidin-1-yl)-N-(2-ethoxy-6-methyl-5,6,7,8-tetrahydro-1,6-Naphthyridin-3-yl)pyrido[3,4-d]pyrimidin-2-amine] yielded an IC50 of 20.1 nM. This lies in the double-digit nanomolar range.

As for `CCOc1nc2c(cc1Nc1ncc3cccc(-c4c(C)nn(C)c4C)c3n1)CN(C)CC2` [Example 67, N-(2-ethoxy-6-methyl-5,6,7,8-tetrahydro-1,6-naphthyridin-3-yl)-8-(1,3,5-trimethyl-1H-pyrazol-4-yl)quinazolin-2-amine], the concentration for half-maximal inhibition (IC50) was determined as 23.3 nM.

With `CN1CCc2c(cc(Nc3ncc4ccnc(N5CCCCC5)c4n3)c(=O)n2C)C1` [Example 68, 1,6-dimethyl-3-((8-(piperidin-1-yl)pyrido[3,4-d]pyrimidin-2-yl)amino)-5,6,7,8-tetrahydro-1,6-naphthyridin-2(1H)-one], the IC50 is 1.47 nM.

Compound `CN1CCc2c(cc(Nc3ncc4ccnc(N5CCOCC5)c4n3)c(=O)n2C)C1` [Example 69, 1,6-dimethyl-3-((8-morpholinopyrido[3,4-d]pyrimidin-2-yl)amino)-5,6,7,8-tetrahydro-1,6-naphthyridin-2(1H)-one] returned a half-inhibitory concentration (IC50) of 2.19 nM.
